A short description of data set [1]: Plasma concentration after a single intraperitoneal dose. The following applies: ip, 24 hours after a single intraperitoneal dose of 1 mg in 250 μL saline. The class given is in vivo. The procedure:
For example, to prepare a peptide 3 derivative, peptide 3(3-12)[MCP-1] was modified according to Jameson et al. (Nature, 368, 744 (1994)), which yielded CRD-Cys13Leu4Ile11peptide 3(3-12)[MCP-1] (FIG. 3). CRD-Cys13Leu4Ile11peptide 3(3-12)[MCP-1], which had very similar properties to peptide 3(1-12)[MCP-1] […] CRD-Cys13Leu4Ile11peptide 3(3-12)[MCP-1] was also resistant to hydrolysis in vivo and allowed therapeutically useful plasma concentrations to be achieved (>10 μM 24 hours after a single intraperitoneal dose of 1 mg of CRD-Cys13Leu4Ile11peptide 3(3-12)[MCP-1] in 250 μL saline).

Data set [2] deals with T1, short splice variant D2 dopamine receptor (Homo sapiens, UniProt P14416).
T1 construct: purchased RBI/Sigma D-179
T1 sequence (P14416 1-414 isoform P14416-2): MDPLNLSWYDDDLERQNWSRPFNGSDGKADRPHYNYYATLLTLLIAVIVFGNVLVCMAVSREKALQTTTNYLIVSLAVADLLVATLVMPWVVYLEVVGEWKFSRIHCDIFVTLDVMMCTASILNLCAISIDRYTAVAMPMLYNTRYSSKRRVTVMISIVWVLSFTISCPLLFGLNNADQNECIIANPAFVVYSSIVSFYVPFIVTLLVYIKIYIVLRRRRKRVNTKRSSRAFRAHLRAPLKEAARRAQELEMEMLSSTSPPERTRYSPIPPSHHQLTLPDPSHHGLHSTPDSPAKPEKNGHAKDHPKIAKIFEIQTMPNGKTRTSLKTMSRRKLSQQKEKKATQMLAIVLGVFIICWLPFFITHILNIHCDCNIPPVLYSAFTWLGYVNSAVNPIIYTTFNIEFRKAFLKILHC
Put plainly: Dopamine receptor membrane binding (3H-Spiperone). The following applies: 100 μM highest concentration tested; read-out: ED50 for competition of spiperone binding to short splice variant D2 dopamine receptor. The procedure:
For dopamine receptor binding, membranes (D-179, RBI/Sigma) are diluted into binding buffer (75 mM Tris pH 7.4, 12.5 mM MgCl2 and 2 mM EDTA). For example, 10 μl of membranes are diluted in 500 μl of binding buffer (i.e., 1:50 dilution), which is aliquoted into labelled tubes. Cold competitor or test competitor is added, (e.g., 5 μl of 100× stock solution; 5 μl of 1 mM haloperidol solution (H-100, RBI/Sigma in DMSO). Radioligand is then added (3H-Spiperone, TRK 818, Amersham, 250 μCi in 250 μl, 10.5 μM at 95 Ci/mmol). For competition studies, 0.5 nM is used. A 100× stock (i.e., 50 nM) is made by diluting the commercial stock 1:210 in binding buffer, and 5 μl is added to every tube. Control tubes have radioligand but no membranes. The mixtures are vortexed, then spun very briefly. The mixtures are then incubated for 1 hour at 27° C. in a water bath. The mixture is filtered through GF/C filters over a vacuum. Each filter is pre-soaked in polyethyleneimine (0.3% in water; add 1 ml of 10% stock (P-261; RBI/Sigma) to 33 ml of MilliQ water). The tubes are washed with 2-3 ml of wash buffer (50 mM Tris pH 7.4) and the wash filtered. The filters are then rinsed with 3×5 ml of wash buffer, air dried, placed in a scintillation vial and 4.5 ml of scintillant added. The activity on the filter is then determined.

Data set [3] concerns MCP-1 co-mitogenic effect, cultured smooth muscle cells. The data set is described as follows: Co-mitogenic effect of MCP-1 on cultured smooth muscle cells. The class given is cell-based. The following applies: 100 μM; MCP-1 with 0.5% fetal calf serum. The procedure: Many chemokines are co-mitogenic with low concentrations of FCS, e.g., 50 ng/ml MCP-1+0.5% FCS is a mitogen for smooth muscle cells. Assays well known to the art for determination of DNA synthesis induced by any known chemokine plus a low concentration (<5%) of FCS on suitable cells (e.g., smooth muscle cells) in the presence and absence of the agent may be employed to screen agents for such inhibitory activity. See Porreca et al., J. Vasc. Res., 34, 58 (1997), the disclosure of which is incorporated by reference herein.
Peptide 3(1-12)[MCP-1] […] MCP-1 has been reported to be a weak co-mitogen with 0.5% fetal calf serum for cultured smooth muscle cells. […] (SEQ ID NO:1) is an MCP-1 receptor antagonist. The observation that peptide 3(1-12)[MCP-1]

For data set [4], the target named is recombinant human chemokine receptors (CCR1-5, CXCR4, CXCR1, CXCR2). Put plainly: Binding of biotin-labeled peptides to chemokine receptor expressing HOS/CHO lines. The following applies: no evidence for any binding; read-out: affinity of any binding to recombinant human chemokine receptors. The procedure:
Iodinated-RANTES and iodinated-MCP-1 (Amersham) were reconstituted in MilliQ water to a concentration of 50 nM (0.1 μCi/μl) with a specific activity of 2000 Ci/mmole. Iodinated-streptavidin was obtained (Amersham) at a stock concentration of 47 nM (0.1 μCi/μl) and a specific activity of 38 μCi/μg (55,000 Da). Cold RANTES and MCP-1 were purchased from R&D Systems (Minneapolis, Minn.), reconstituted in sterile PBS+1 mg/ml fatty acid free BSA (FAF-BSA) (Sigma A-6003) at 10 μg/ml ([…]). Cold streptavidin (Calbiochem) was reconstituted in sterile MilliQ to a concentration of 4 mg/ml (90 μM).
FAF-BSA was used throughout. All experiments were performed in binding medium (50 mM HEPES, 1 mM CaCl2, 1 mM MgCl2, 0.5% FAF-BSA pH 7.5) as described by Ruffing et al. (Cell. Immunol., 189, 160 (1998)) unless stated otherwise. Reactions were all performed at 4° C. and all buffers were pre-cooled to 4° C. unless stated otherwise.
The biotinylated peptide was synthesized as an N-terminal biotin conjugate of the sequence n′-[…]-c′ (SEQ ID NO:152; Affiniti Research) and confirmed as >90% pure by HPLC. […]
The binding of labeled peptide 2 and labeled peptide 3 to the parental HOS, parental CHO and 8 chemokine receptor expressing lines was compared. […] The amount of streptavidin molecules added was calculated in each case to be approximately 50-fold in excess over the number of chemokine receptor sites. […]

Positions of bridges follow the written chain, without caps; N, C: chain ends. Non-standard residues stand in square brackets, D forms with d. Residues, ends and D or L forms follow the SMILES beside them.

Turning to `CC[C@@H](C)[C@H]1NC(=O)[C@@H](CCC(N)=O)NC(=O)[C@H](N)CSSC[C@H](C(N)=O)NC(=O)[C@@H](CC(C)C)NC(=O)[C@@H](CC(=O)O)NC(=O)[C@H]2CCCN2C(=O)[C@@H](CCCCN)NC(=O)[C@@H](CCC(N)=O)NC(=O)[C@@H](CCCCN)NC(=O)[C@@H](Cc2c[nH]c3ccccc23)NC1=O` (H-[dC][dQ][dI][dW][dK][dQ][dK][dP][dD][dL][dC]-NH2; disulfide 1-11; N-terminus assumed), in data set [1], the level at time molar at 24 h was > 10 µM.

For `C=CCCCCCCCCC(=O)N[C@H]1CCC(=O)NC1=O` [A-I (NR58.4), [3S]-3-(undec-10-enoylamino)piperidine-2,6-dione], the EC50 in data set [2] is > 100 µM.

In the case of EICADPKQKWVQ [peptide 3(1-12)[MCP-1]], the “effect on the co-mitogenic effect of MCP-1 for cultured smooth muscle cells” value in data set [3] was “completely abolished”. In addition, the Kd in data set [4] was > 10 µM.

The values are drawn from patent publication US7989466B2, “Methods to inhibit or augment an inflammatory response” (Cambridge Enterprise Limited, priority 1999, dated 2011).
